Source: patent US4129565A, “Isocarbostyril derivatives” (priority 1975, dated 1978)
Where a name gives a salt, the structure may show the parent alone.

Key:
[1] = biological target: T1, isolated guinea-pig tracheas (β2) (Cavia porcellus, UniProt Q8K4Z4); assay: β-adrenergic blocking effect: antagonism of isoproterenol stimulation in isolated guinea-pig tracheas
T1 construct: isolated guinea-pig tracheas; from tissue; host or cells: isolated guinea-pig tracheas

[2] = system: reserpine-treated anaesthetized rats; assay: Intrinsic heart stimulating effect in reserpine-treated anaesthetized rats; format: in vivo, rat
Protocol: Intrinsic heart stimulating effects of the compounds of the invention were also determined using reserpine-treated anaesthetized rats.

in vivo = settings: mouse, iv
Protocol: With respect to acute toxicity of the isocarbostyril derivatives of the general formula (I), experiments were carried out to obtain the LD50 values of the compounds.

[3] = biological target: T2, isolated guinea-pig atria (β1) (Cavia porcellus, UniProt H0W3H1); assay: β-adrenergic blocking effect: antagonism of isoproterenol stimulation in isolated guinea-pig atria
T2 construct: isolated guinea-pig atria; from tissue; host or cells: isolated guinea-pig atria
T2 sequence (H0W3H1 1-470): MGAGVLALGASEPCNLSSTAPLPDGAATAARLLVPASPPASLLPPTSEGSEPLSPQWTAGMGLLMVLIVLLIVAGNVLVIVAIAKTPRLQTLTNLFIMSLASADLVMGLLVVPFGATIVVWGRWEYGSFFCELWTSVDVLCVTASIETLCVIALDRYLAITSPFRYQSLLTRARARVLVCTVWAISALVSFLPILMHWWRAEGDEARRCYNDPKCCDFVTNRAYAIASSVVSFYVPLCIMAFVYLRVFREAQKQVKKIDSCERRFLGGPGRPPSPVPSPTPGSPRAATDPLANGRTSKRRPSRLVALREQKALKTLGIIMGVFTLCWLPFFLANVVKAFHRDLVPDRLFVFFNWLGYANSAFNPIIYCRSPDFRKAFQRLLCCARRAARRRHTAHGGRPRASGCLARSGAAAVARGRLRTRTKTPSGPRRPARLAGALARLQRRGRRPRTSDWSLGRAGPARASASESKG

T1 sequence (Q8K4Z4 whole entry): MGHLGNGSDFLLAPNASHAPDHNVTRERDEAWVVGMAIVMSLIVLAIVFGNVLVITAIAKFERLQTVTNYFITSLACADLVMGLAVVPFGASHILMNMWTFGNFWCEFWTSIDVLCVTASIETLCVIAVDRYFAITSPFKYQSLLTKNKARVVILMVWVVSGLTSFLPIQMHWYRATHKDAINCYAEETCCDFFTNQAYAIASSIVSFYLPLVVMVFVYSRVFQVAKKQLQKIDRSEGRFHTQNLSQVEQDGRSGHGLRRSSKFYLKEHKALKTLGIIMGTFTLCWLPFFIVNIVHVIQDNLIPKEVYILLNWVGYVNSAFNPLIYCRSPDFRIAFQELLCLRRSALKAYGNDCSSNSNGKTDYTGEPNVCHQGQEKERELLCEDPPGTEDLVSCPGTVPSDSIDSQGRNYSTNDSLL

Compound	β-adrenergic blocking activity (Relative potency) trachea (β2) [1]	Intrinsic heart stimulation [2]	LD50 (in vivo) [mg/kg]	β-adrenergic blocking activity (Relative potency) atria (β1) [3]
CC(C)NCC(O)COc1cn(C)c(=O)c2ccccc12 (stereo not drawn) [Example 1, 4-(3-isopropylamino-2-hydroxy)propoxy-2-methylisocarbostyrilhydrochloride]	0.44	0	105	3.2
Cn1cc(OCC(O)CNC(C)(C)C)c2ccccc2c1=O (stereo not drawn) [Example 2, 4-(3-tert.-butylamino-2-hydroxy)propoxy-2-methylisocarbostyril hydrochloride]	0.52	0	119	2.5
CCC(C)NCC(O)COc1cn(C)c(=O)c2ccccc12 (stereo not drawn) [Example 3, 4-(3-sec.-butylamino-2-hydroxy)propoxy-2-methyl isocarbostyril hydrochloride]	0.05	0	120	4.5
Cn1cc(OCC(O)CNCc2ccccc2)c2ccccc2c1=O (stereo not drawn) [Example 7, 4-(3-benzylamino-2-hydroxy)propoxy-2-methylisocarbostyril hydrochloride]			120	
Cn1cc(OCC(O)CNC2CCCCC2)c2ccccc2c1=O (stereo not drawn) [Example 8, 4-(3-cyclohexylamino-2-hydroxy)propoxy-2-methylisocarbostyril hydrochlorid]			80	
Cn1cc(OCC(O)CN2CCCCC2)c2ccccc2c1=O (stereo not drawn) [Example 9, 4-(3-piperidino-2-hydroxy)propoxy-2-methylisocarbostyril hydrochloride]			200	
CCCCN(C)CC(O)COc1cn(C)c(=O)c2ccccc12 (stereo not drawn) [Example 11, 4-(3-N-methyl-butylamino-2-hydroxy) propoxy-2-methyl isocarbostyril]			143	
CN1CCN(CC(O)COc2cn(C)c(=O)c3ccccc23)CC1 (stereo not drawn) [Example 12, 4-(3-N-methylpiperazino-2-hydroxy) propoxy-2-methyl isocarbostyril]			270	
CC[N+](C)(CC)CC(O)COc1cn(C)c(=O)c2ccccc12 (stereo not drawn) [Example 13, 4-(3-diethylamino-2-hydroxy)propoxy-2-methyl isocarbostyril methoiodide]			15.2	
CC(C)[N+](C)(C)CC(O)COc1cn(C)c(=O)c2ccccc12 (stereo not drawn) [Example 14]			< 20	
CC[N+](C)(C)CC(O)COc1cn(C)c(=O)c2ccccc12 (stereo not drawn) [Example 15, 4-(3-dimethylamino-2-hydroxy)propoxy-2-methyl isocarbostyril ethoiodide]			16.7	
CC(C)NCC(O)COc1cccc2ccccc12 (stereo not drawn) [Propranolol, propranolol, reference compound]		0		
CCCNCC(O)COc1cn(C)c(=O)c2ccccc12 (stereo not drawn) [R3=H, R4=n-C3 H7]			115	
CCCCNCC(O)COc1cn(C)c(=O)c2ccccc12 (stereo not drawn) [R3=H, R4=n-C4 H9]			105	
CCCCCCNCC(O)COc1cn(C)c(=O)c2ccccc12 (stereo not drawn) [R3=H, R4=n-C6 H13]			69	
